The term IC50 denotes the concentration needed to halve the response being measured.

Assay [1] in a line: Antiviral activity against Human Immunodeficiency Virus by Reverse transcriptase (RT) assay in CEM-SS cells.
Assay [2] is described as follows: Antiviral activity against Human Immunodeficiency Virus by Reverse transcriptase assay in CEM-SS.
Assay [3] in a line: Antiviral activity against Human Immunodeficiency Virus by Reverse transcriptase assay in CEM-SS cells.
Assay in assay [4]: as above
This is another data set of the same source.

The nature of assay [5]: Antiviral activity against Human Immunodeficiency Virus by Reverse transcriptase assay CEM-SS cells.

`O=[N+]([O-])c1cccc(Cn2c(Br)nc3cc(Cl)c(Cl)cc32)c1` [2-Bromo-5,6-dichloro-1-(3-nitro-benzyl)-1H-benzoimidazole] displayed an IC50 in assay [1] greater than 32 µM.
In assay [2], `Cc1ccc(Cn2c(Cl)nc3cc(Cl)c(Cl)cc32)cc1` [2,5,6-Trichloro-1-(4-methyl-benzyl)-1H-benzoimidazole] had an IC50 greater than 100 µM.
For `Cc1cccc(Cn2c(Br)nc3cc(Cl)c(Cl)cc32)c1` [2-Bromo-5,6-dichloro-1-(3-methyl-benzyl)-1H-benzoimidazole], it took 66 µM to reach half-maximal inhibition in assay [3] (IC50).
In the case of `O=[N+]([O-])c1ccc(Cn2c(Cl)nc3cc(Cl)c(Cl)cc32)cc1` [2,5,6-Trichloro-1-(4-nitro-benzyl)-1H-benzoimidazole], the IC50 in assay [4] was greater than 100 µM.
In the case of `COc1ccc(Cn2c(Br)nc3cc(Cl)c(Cl)cc32)cc1` [2-Bromo-5,6-dichloro-1-(4-methoxy-benzyl)-1H-benzoimidazole], the IC50 in assay [5] was greater than 100 µM.
`Cc1cn([C@H]2C[C@H](N=[N+]=[N-])[C@@H](CO)O2)c(=O)[nH]c1=O` [1-((2R,4S,5S)-4-Azido-5-hydroxymethyl-tetrahydro-furan-2-yl)-5-methyl-1H-pyrimidine-2,4-dione] yielded an IC50 in assay [3] of 0.0031 µM.
As for `FC(F)(F)c1cc(Cn2c(Br)nc3cc(Cl)c(Cl)cc32)cc(C(F)(F)F)c1` [1-(3,5-Bis-trifluoromethyl-benzyl)-2-bromo-5,6-dichloro-1H-benzoimidazole], the IC50 in assay [3] was greater than 100 µM.
In assay [3], `Clc1ccc(Cn2c(Br)nc3cc(Cl)c(Cl)cc32)cc1Cl` [2-Bromo-5,6-dichloro-1-(3,4-dichloro-benzyl)-1H-benzoimidazole] registered an IC50 greater than 100 µM.

These data come from BindingDB's records for doi:10.1021/jm970559i (University of Michigan, 1998).
